Measured values published in paper PMC12731536, “Sc(III) Complexes of Pyclen Derivative Ligands as Probes for Hypoxia: Synthesis, Chemical Characterization, ^44Sc‐Radiolabeling, and Preclinical Assessment” (Chemistry (Weinheim an Der Bergstrasse, Germany), 2025).
Where two headings read alike, the source gives them in different places.

Key:
[1] = Stability constants of Sc(III) complexes, out‐of‐cell (batch) samples, 45Sc NMR; format: physicochemical; conditions: for AL/M (relative affinity): [Sc(III)]total = 10 nM, [L]tot = 100 nM
Protocol: The stability constant of the complex of PC2AM^nBu ligand formed with Sc(III) ion was studied using “out‐of‐cell” (batch) samples using ^45Sc NMR spectroscopy in strongly acidic media. Typical ^45Sc NMR spectra are shown in Figure 5 along with the corresponding ^1H NMR spectra of the aromatic region of the ligand.
Using the ^45Sc NMR signal intensities of free Sc^3+ measured in the equilibrated samples, the stability constant, K ScL, was calculated by fitting the areas with the PSEQUAD program ^[ [47] ^] (Figure 6). The best fitting was observed by considering the simplest model including only [Sc(PC2AM^nBu)]^+ species; that is, the formation of protonated [Sc(HPC2AM^nBu)]^2+ cannot be confirmed.
The stability constant of the [Sc(PCTA)] complex was determined in a similar way (Figure S13). The results were summarized in Table 2, including the data of [Sc(DO3AM‐NI)], determined in our previous study.^[ [33] ^]
Among the complexes shown in Table 2, the [Sc(DO3AM‐NI)] complex has the highest stability, but its stability constant is lower than the corresponding values of [Sc(DOTA)]^− (log K ScL = 30.79) and [Sc(DTPA)]^2− (log K ScL = 27.43). ^[ [49] ^] As evidenced for DO3AM‐mono(amide) the replacement of acetate side chains with amide groups results in a decrease in stability constant (and conditional stability); therefore, we can see an order of magnitude difference between the stabilities of [Sc(PCTA)] and [Sc(PC2AM^nBu)]^+. Although these K ScL constants and pSc values are somewhat lower than those of the complexes formed with traditional DOTA and DTPA ligands, these chelators remain remarkably good Sc(III)‐binding chelators. […] Therefore, following the proposal of M. Meyer and colleagues,^[ [48] ^] […] For the AL/M values, 1 corresponds to 90%, 2 corresponds to 99%, 3 corresponds to 99.9% etc. for complex formation. […] The AL/M data of the [Sc(PC2AM^nBu)]^+ complex only exceeds that of the [Sc(DO3AM‐NI)] complex in the pH < 3.0 range, which can be advantageous for labeling at low pH. Furthermore, based on the data in Table 2, it can be concluded that for these systems there is no discrepancy between the trends observed in the pSc and AL/M values.
The stability constant of [Sc(PC2AM^nBu)]^+ and [Sc(PCTA)] complexes was studied using “out‐of‐cell” (batch) samples using ^45Sc and ^1H NMR spectroscopy. The NMR spectra were obtained using a Bruker Avance II DRX spectrometer (9.4 T), equipped with Bruker Variable Temperature Unit, Bruker Cooling Unit, and a 5 mm BB inverse z gradient probe. For the investigation of [Sc(PC2AMnBu)]⁺, twelve samples (cSc(III) = 3.00 mM, cligand = 3.06 mM, in the pH range of –log[H^+] = 0.1–1.3; I = 1.0 M NaCl/HCl) were prepared in NMR tubes and kept at 25 °C for one week to reach equilibrium. During this period, ^1H and ^45Sc NMR measurements were performed daily to monitor changes in signal intensities. No significant changes were detected after one week, even in the most acidic sample. The intensities of the free Sc(III) signals were normalized using a standard 50 mM ScCl3 solution containing 1 M HCl (20% D2O). For the determination of the stability of the [Sc(PCTA)] complex, eleven “batch” samples (cSc(III) = 4.00 mM, cligand = 4.08 mM), in the pH range of –log[H^+] = 0.1–1.25, were prepared. The evaluation of the measured data was performed using the PSEQUAD program.^[ [47] ^] Samples were prepared in H2O, with 10% D2O added for deuterium lock. The actual resonance frequencies for ^1H, ^13C, ^19F, and ^45Sc are indicated in the text and figure captions. The chemical shifts of ^1H and ^13C were calibrated using an external TMS standard, while ^19F was referenced to CCl3F. The ^45Sc NMR shift was calibrated to 0 ppm using a 5 mM solution of ScCl3 in 0.1 M HCl.

[2] = Acid‐assisted dissociation (decomplexation) of Sc(III) complexes, UV spectroscopy; format: physicochemical; conditions: dissociation of the Sc(III) complex, 1.6‐2.6 M HClO4, 25 °C, I = 2.6 M
Source text: The inertness of metal complexes is a basic requirement in all relevant modalities of medical imaging. Complexes of macrocyclic ligands are often more inert compared to open‐chain analogs. In order to assess the behavior of our complexes, the decomplexation of [Sc(PC2AM^nBu)]^+ and [Sc(PCTA)] was studied in a strongly acidic medium (cH + = 1.6 ‐ 2.6 M HClO4) by using UV spectroscopy. […] The primary Abs. versus time curves have been fitted by monoexponential function returning kobs (s^−1) values (Figures S22 and S23).
The plots of the rate constants as a function of acid concentration yielded linear relationships for both complexes (k obs = k 0 + k 1[H^+]). The slopes of these lines correspond to the rate coefficients characteristic for acid‐assisted dissociation (k 1), whereas the intercepts characterize the acid‐independent part, often referred to as a rate of spontaneous dissociation. […] The rate coefficients obtained during the fitting are summarized in Table 3, along with the half‐lives calculated from the rate coefficients by using 1 M acid concentration (t ½ = ln 2 / k obs).
Kinetic studies of the dissociation of the [Sc(PC2AMnBu)]^+ and [Sc(PCTA)] complexes were carried out by examining the dependence of the dissociation rates on acid concentration. Spectrophotometric measurements were conducted on a JASCO V‐760 spectrophotometer at λ = 280 nm. The concentration of the complex in the sample was 0.30 mM, and HClO4 was applied in concentrations ranging from 1.6 to 2.6 M. The evaluation of the measured data was performed with Scientist software ^[ [62] ^] to determine the k 0 (spontaneous) and k 1 (acid‐assisted) reaction rates.

[3] = pH‐potentiometric determination of ligand protonation constants; format: physicochemical; conditions: T = 25 °C
Protocol: The equilibrium study of the PC2AM^nBu ligand has been started by determining the protonation constants in 0.15 M and 1.00 M NaCl ionic strength. (As the stability of the Sc(III) complex was determined in 1.00 M ionic strength, we had to perform the pH‐potentiometric titration of ligands using 1.00 M ionic strengths also.) The results of pH‐potentiometric measurement are shown in Table 1, where the corresponding data for 3,9‐PC2A,^[ [42] ^] PCTA ^[ [46] ^] and PC2AM‐NI ligands determined under identical conditions are also presented. Knowledge of the protonation constants defined by Eqn. 1 and 2 are essential for the calculation of the stability constants of the Sc(III) complexes:
(1) PC2AM^nBu^2−+nH^+⇌Hn(PC2AM^nBu)^−2+n (2) βn=HnPC2AM^nBu^−2+n/PC2AM^nBu^2−H^+^n
The protonation constants of the ligands, as well as the concentrations of the ligand stock solutions, were determined by pH‐potentiometric method using a Metrohm 785 DMP Titrino automatic titrator using a Metrohm 6.00234.100 combined glass electrode. The titrations were carried out in the pH range 1.75–11.80 and the pH electrode was calibrated by a two‐point calibration routine with the use of 0.05 M KH‐phthalate (pH = 4.005) and 0.01 M borax (pH = 9.177 buffers. The samples were stirred at 25 °C (±0.1 °C) and N2 gas bubbled into the system to ensure inert conditions and to eliminate the effect of the presence of CO2. For the calculation of [H^+] from the measured pH values, the method proposed by Irving et al. was applied.^[ [61] ^] For this, a 0.01 M HCl solution was titrated with the standardized NaOH solution in the presence of 0.15 M NaCl ionic strength at 25 °C. The differences between the measured (pHread) and calculated pH (‐log[H^+]) values were used to obtain the equilibrium H^+ concentration from the pHmeas values during the titrations. By fitting the resulting titration curves (pH – V (NaOH) data pairs) with the PSEQUAD program, the protonation constants of the ligands were determined.^[ [47] ^] The titration of the [Sc(PC2AM^nBu)]^+ with NaOH was performed with the same method by applying very similar conditions.

[4] = cited from earlier work
[5] = Time course of Sc(III) complex formation, 45Sc NMR; format: physicochemical
Protocol: The time course of complex formation of PC2AM^nBu and PCTA ligands with Sc(III) ion was investigated by ^45Sc‐NMR under acidic conditions (cSc = cligand = 10 mM and 9.5 mM, respectively, ‐log[H^+] = 1.28). The decrease of the narrow signal of the free Sc(III) ion was monitored as a function of time. […] The kinetic measurements of formation could be seen in Figures S18 and S19. The complexation for the [Sc(PCTA)] chelate at pH = 1.28 and 25 °C took about 300 minutes to reach the equilibrium, whereas for the [Sc(PC2AM^nBu)]^+ complex it took a bit longer time under these conditions. (In order to confirm that the samples reached the equilibrium, we have repeated the ^45Sc NMR study for both samples after a few days when the signal of the free Sc(III) was absent, and only the signals of the complexes were detected.) The detailed study of formation kinetics was not our aim in this project. One can expect that the reaction follows the well‐known mechanisms of M(III) ‐ macrocyclic APC systems ^[ [54] ^]: formation of a protonated intermediate in fast pre‐equilibrium followed by a slow, base‐catalyzed deprotonation/structural rearrangement as a rate‐determining step. The intermediate is named also as “out‐of‐cage complex.”^[ [55] ^] Our experimental curves are likely in accordance with this mechanism. Fitting the measured data for the free Sc(III) signals by a monoexponential function gives the rate constant k obs = (1.04 ± 0 .05) x 10^−4 s^−1 for the [Sc(PC2AM^nBu)]^+ and k obs = (2.51 ± 0.12) x 10^−4 s^−1 for the [Sc(PCTA)] complex. […] The relatively fast complex formation at the given acidic condition is very encouraging for the Sc(III) labeling experiments.
^45Sc NMR measurements (97 MHz) were performed on a Bruker DRX 400 (9.4 T) spectrometer equipped with a Bruker VT‐1000 thermocontroller and a BB inverse z‐gradient probe (5 mm). The kinetic experiments were performed at 25 °C in aqueous solution, using D2O (10% v/v) as a lock solvent. Typical parameters for 45Sc NMR measurements were used: TD = 32k, p1 = 15.6 µs (90°), d 1 = 0.1 s. The formation reactions of the [Sc(PC2AM^nBu)]^+ and [Sc(PCTA)] complexes were monitored by ^45Sc NMR spectroscopy in two sample types: one containing 10.0 mM PC2AM^nBu and ScCl3 / 9.5 mM […] and ScCl3. In both cases, the total acid concentration corresponded to a pH of 1.28. Obtained monoexponential curves (signal area of free Sc(III) vs. time) were fitted using Scientist software ^[ [62] ^] to determine the formation rate.

[6] = I = 0.15 M NaCl, T = 25 °C; cited from earlier work

SMILES: CCCCNC(=O)CN1CCN(CC(=O)O)Cc2cccc(n2)CN(CC(=O)O)CC1 [PC2AM^nBu]
- AL/M (relative affinity) ([1]; pH = 7.4, I = 1.00 M NaCl): 5.17
- pSc ([1]; pSc = ‐log[Sc(III)]free, cSc(III) = 1x10^−8 M, clig = 1x10^−7 M, pH = 7.4, I = 1.00 M NaCl): 19.32
- log K ScL ([1]; stability constant of the Sc(III) complex, I = 1.00 M NaCl, T = 25 °C): 19.53(4)
- k 0 (spontaneous dissociation) [2]: 0 s⁻¹
- k 1 (acid‐assisted dissociation) [2]: (3.64 ± 0.08) x 10^−7 M^−1s^−1
- log K 1 ^H ([3]; I = 0.15 M NaCl): 8.79(1)
- log K 2 ^H ([3]; I = 0.15 M NaCl): 7.59(1)
- log K 3 ^H ([3]; I = 0.15 M NaCl): 2.31(2)
- log K 4 ^H ([3]; I = 0.15 M NaCl): 1.28(3)
- log β 2 ^H ([3]; I = 0.15 M NaCl): 16.38
- log K 1 ^H ([3]; I = 1.00 M NaCl): 8.13(2)
- log K 2 ^H ([3]; I = 1.00 M NaCl): 7.59(1)
- log K 3 ^H ([3]; I = 1.00 M NaCl): 2.52(1)
- log β 2 ^H ([3]; I = 1.00 M NaCl): 15.72

SMILES: O=C([O-])CN1CCN(CC(=O)[O-])CCN(CC(=O)[O-])CCN(CC(=O)[O-])CC1.[Sc+3] [[Sc(DOTA)]^−]
- log K ScL ([4]; literature stability constant): 30.79

SMILES: O=C([O-])CN1CCN(CC(=O)[O-])Cc2cccc(n2)CN(CC(=O)[O-])CC1.[Sc+3] [[Sc(PCTA)]]
- time of complexation to reach the equilibrium ([5]; pH = 1.28, 25 °C): about 300 minutes
- half‐life of the complex formation reaction (t 1/2 = ln2 / k obs) ([5]; ‐log[H^+] = 1.28, 25 °C): 46 min
- k obs of complex formation ([5]; ‐log[H^+] = 1.28, 25 °C, cSc = cligand = 10 mM (PC2AM^nBu) or 9.5 mM (PCTA), monoexponential fit of free Sc(III) signal): (2.51 ± 0.12) x 10^−4 s^−1

SMILES: O=C(O)CN1CCN(CC(=O)O)CCN(CC(=O)NCCn2ccnc2[N+](=O)[O-])CCN(CC(=O)O)CC1 [DO3AM‐NI]
- AL/M (relative affinity) ([1]; pH = 7.4, I = 0.15 M NaCl, calculated from constants of ref 33): 6.57
- log β 2 ^H [6]: 17.38
- pSc ([4]; pSc = ‐log[Sc(III)]free, cSc(III) = 1x10^−8 M, clig = 1x10^−7 M, pH = 7.4, I = 0.15 M NaCl): 20.74
- log K ScL ([4]; stability constant of the Sc(III) complex, I = 0.15 M NaCl, T = 25 °C): 22.36

SMILES: O=C([O-])CN(CCN(CC(=O)[O-])CC(=O)[O-])CCN(CC(=O)[O-])CC(=O)[O-].[Sc+3] [[Sc(DTPA)]^2−]
- log K ScL ([4]; literature stability constant): 27.43
